According to PubChem BioAssay AID330 (DTP/NCI, 2004):
“And” between values parts separate entries of the source, which are not always exact repeats. Identical values can stand only once. Inconclusive results and toxic doses are left out. Rule for the calls: active = survival T/C of 150% or more; inactive = T/C below 125% in these data.

System: P388 leukemia ip, CD2F1 mice, survival T/C
Experiment: NCI In Vivo Anticancer Drug Screen. Data for tumor model P388 Leukemia (intraperitoneal) in CD2F1 (CDF1) mice
Settings: endpoint: median survival time, higher = longer survival
How it was run: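 Mice carrying the transplanted tumor received test compound or vehicle. Survival was recorded in each group, and the value is the treated-group measurement divided by that of the vehicle-treated control group.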

[1] = dose: 50.0 mg/kg/injection, schedule: Q01DX009 (ip), vehicle: Klucel (hydroxypropylcellulose) (HPC)
[2] = dose: 100.0 mg/kg/injection, schedule: Q01DX009 (ip), vehicle: Klucel (hydroxypropylcellulose) (HPC)
[3] = dose: 200.0 mg/kg/injection, schedule: Q01DX009 (ip), vehicle: Klucel (hydroxypropylcellulose) (HPC)
[4] = dose: 50.0 mg/kg/injection, schedule: Q01DX009 (ip), vehicle: saline with Tween-80
[5] = dose: 100.0 mg/kg/injection, schedule: Q01DX009 (ip), vehicle: saline with Tween-80
[6] = dose: 200.0 mg/kg/injection, schedule: Q01DX009 (ip), vehicle: saline with Tween-80
[7] = dose: 25.0 mg/kg/injection, schedule: Q01DX009 (ip), vehicle: saline
[8] = dose: 50.0 mg/kg/injection, schedule: Q01DX009 (ip), vehicle: saline
[9] = dose: 50.0 mg/kg/injection, schedule: Q01DX005 (ip), vehicle: saline with Tween-80
[10] = dose: 60.0 mg/kg/injection, schedule: Q01DX005 (ip), vehicle: saline with Tween-80
[11] = dose: 120.0 mg/kg/injection, schedule: Q01DX005 (ip), vehicle: saline with Tween-80
[12] = dose: 100.0 mg/kg/injection, schedule: Q01DX009 (ip), vehicle: saline
[13] = dose: 200.0 mg/kg/injection, schedule: Q01DX009 (ip), vehicle: saline

Measured: T/C

CC(N)(CCC(=O)O)C(=O)O (stereo unspecified)
inactive: [1] 98 % of control | [2] 96 % of control | [3] 97 % of control | dose: 400.0 mg/kg/injection, schedule: Q01DX009 (ip), vehicle: Klucel (hydroxypropylcellulose) (HPC) 103 % of control

O=C(O)CCCCCOC(C[N+](=O)[O-])C(Cl)(Cl)Cl (stereo unspecified)
inactive: [4] 97 % of control | [5] 102 % of control | [6] 111 % of control

COc1ccc(-c2n[nH]c(-c3ccc(OC)cc3)c2N=Nc2ccc(S(=O)(=O)Nc3nnc(C)s3)cc2)cc1
inactive: dose: 100.0 mg/kg/injection, schedule: Q04DX002 (ip), vehicle: saline with Tween-80 103 % of control | dose: 200.0 mg/kg/injection, schedule: Q04DX002 (ip), vehicle: saline with Tween-80 103 % of control | dose: 400.0 mg/kg/injection, schedule: Q04DX002 (ip), vehicle: saline with Tween-80 94 % of control

N=C(N)Cl
inactive: dose: 15.0 mg/kg/injection, schedule: Q01DX005 (ip), vehicle: saline 100 % of control | dose: 30.0 mg/kg/injection, schedule: Q01DX005 (ip), vehicle: saline 94 % of control | dose: 60.0 mg/kg/injection, schedule: Q01DX005 (ip), vehicle: saline 88 % of control

C1CSCCSCCSCCS1
inactive: dose: 100.0 mg/kg/injection, schedule: Q04DX003 (ip), vehicle: Klucel (hydroxypropylcellulose) (HPC) 100 % of control | dose: 200.0 mg/kg/injection, schedule: Q04DX003 (ip), vehicle: Klucel (hydroxypropylcellulose) (HPC) 100 % of control | dose: 400.0 mg/kg/injection, schedule: Q04DX003 (ip), vehicle: Klucel (hydroxypropylcellulose) (HPC) 101 % of control

O=c1[nH]c(=O)c2[nH]c(=O)[nH]c(=O)c2[nH]1
inactive: dose: 50.0 mg/kg/injection, schedule: Q01DX005 (ip), vehicle: Klucel (hydroxypropylcellulose) (HPC) 99 % of control | dose: 100.0 mg/kg/injection, schedule: Q01DX005 (ip), vehicle: Klucel (hydroxypropylcellulose) (HPC) 96 % of control | dose: 200.0 mg/kg/injection, schedule: Q01DX005 (ip), vehicle: Klucel (hydroxypropylcellulose) (HPC) 103 % of control

C#CCOc1ccc(Cl)cc1C(=O)O
inactive: [4] 105 % of control | [5] 102 % of control | [6] 97 % of control

CN(C)C(=O)C(=O)C1C=Cc2ccccc21 (stereo unspecified)
inactive: [5] 100 % of control | [6] 90 % of control | dose: 400.0 mg/kg/injection, schedule: Q01DX009 (ip), vehicle: saline with Tween-80 95 % of control

Cc1c2c(c(O)c3c(O)cccc13)C(=O)C1(O)C(O)=C(C(=O)NCNc3ccc(C(N)=O)cn3)C(=O)C(N(C)C)C1C2 (stereo unspecified)
inactive: dose: 3.12 mg/kg/injection, schedule: Q01DX005 (ip), vehicle: saline 111 % of control | dose: 6.25 mg/kg/injection, schedule: Q01DX005 (ip), vehicle: saline 114 % of control and 117 % of control | dose: 12.5 mg/kg/injection, schedule: Q01DX005 (ip), vehicle: saline 114 % of control | dose: 25.0 mg/kg/injection, schedule: Q01DX005 (ip), vehicle: saline 120 % of control

C/C(=C\CCC(C)C1CCC2(C)C3=C(CCC12C)C1(C)CCC(O)C(C)(C)C1CC3)C(=O)O (stereo unspecified)
inactive: dose: 12.5 mg/kg/injection, schedule: Q01DX005 (ip), vehicle: DMSO 103 % of control | dose: 25.0 mg/kg/injection, schedule: Q01DX005 (ip), vehicle: DMSO 101 % of control | dose: 50.0 mg/kg/injection, schedule: Q01DX005 (ip), vehicle: DMSO 88 % of control | dose: 100.0 mg/kg/injection, schedule: Q01DX005 (ip), vehicle: DMSO 91 % of control

Cc1cc2c(c3ncccc13)OCN(Cc1ccc(Cl)cc1)C2
inactive: [4] 94 % of control | [5] 95 % of control | [6] 94 % of control

CC(C)SC=O
inactive: [1] 100 % of control | [2] 107 % of control | [3] 106 % of control

c1ccc(CC23CCCCC2N3)cc1 (stereo unspecified)
inactive: dose: 12.5 mg/kg/injection, schedule: Q01DX009 (ip), vehicle: saline 95 % of control | dose: 12.5 mg/kg/injection, schedule: Q04DX003 (ip), vehicle: saline 90 % of control | [7] 113 % of control | dose: 25.0 mg/kg/injection, schedule: Q04DX003 (ip), vehicle: saline 90 % of control | [8] 100 % of control | dose: 50.0 mg/kg/injection, schedule: Q04DX003 (ip), vehicle: saline 100 % of control

O=[N+]([O-])c1nccn1CC(O)CF (stereo unspecified)
inactive: dose: 86.4 mg/kg/injection, schedule: Q01DX005 (ip), vehicle: saline + Tween-80 + alcohol 104 % of control | dose: 144.0 mg/kg/injection, schedule: Q01DX005 (ip), vehicle: saline + Tween-80 + alcohol 89 % of control | dose: 216.0 mg/kg/injection, schedule: Q01DX001 (ip), vehicle: saline + Tween-80 + alcohol 100 % of control | dose: 216.0 mg/kg/injection, schedule: Q01DX001 (ip), vehicle: saline with Tween-80 100 % of control | dose: 240.0 mg/kg/injection, schedule: Q01DX005 (ip), vehicle: saline + Tween-80 + alcohol 103 % of control | dose: 360.0 mg/kg/injection, schedule: Q01DX001 (ip), vehicle: saline + Tween-80 + alcohol 104 % of control | dose: 360.0 mg/kg/injection, schedule: Q01DX001 (ip), vehicle: saline with Tween-80 104 % of control | dose: 600.0 mg/kg/injection, schedule: Q01DX001 (ip), vehicle: saline + Tween-80 + alcohol 101 % of control | dose: 600.0 mg/kg/injection, schedule: Q01DX001 (ip), vehicle: saline with Tween-80 101 % of control

CC1=C(O)COc2cc(C)ccc21
inactive: dose: 100.0 mg/kg/injection, schedule: Q01DX001 (ip), vehicle: saline 102 % of control | dose: 200.0 mg/kg/injection, schedule: Q01DX001 (ip), vehicle: saline 100 % of control | dose: 400.0 mg/kg/injection, schedule: Q01DX001 (ip), vehicle: saline 100 % of control

O=C(NC(=O)c1ccccc1Cl)Nc1ccc(C(O)(C(F)(F)F)C(F)(F)F)cc1
inactive: [9] 104 % of control | dose: 100.0 mg/kg/injection, schedule: Q01DX005 (ip), vehicle: saline with Tween-80 102 % of control | dose: 200.0 mg/kg/injection, schedule: Q01DX005 (ip), vehicle: saline with Tween-80 100 % of control

NC(=S)N/N=C1/C(=O)N(C2CCCCCC2)C(=O)C1C(=O)NC1CCCCCC1 (stereo unspecified)
inactive: dose: 12.5 mg/kg/injection, schedule: Q01DX005 (ip), vehicle: saline with Tween-80 105 % of control | dose: 25.0 mg/kg/injection, schedule: Q01DX005 (ip), vehicle: saline with Tween-80 99 % of control | [9] 104 % of control and 90 % of control

CNc1ncnc2c1ncn2C1CCCCO1 (stereo unspecified)
inactive: dose: 50.0 mg/kg/injection, schedule: Q01DX005 (ip), vehicle: saline 102 % of control | dose: 100.0 mg/kg/injection, schedule: Q01DX005 (ip), vehicle: saline 100 % of control | dose: 200.0 mg/kg/injection, schedule: Q01DX005 (ip), vehicle: saline 91 % of control

COc1ccc2c(c1)CCc1cc(OC)ccc1/[N+]([O-])=[N+]\2[O-]
inactive: [10] 93 % of control | [11] 93 % of control | dose: 240.0 mg/kg/injection, schedule: Q01DX005 (ip), vehicle: saline with Tween-80 101 % of control

COc1ccc(C2CC(=O)C(C)C(c3ccc(OC)cc3)N2)cc1 (stereo unspecified)
inactive: [8] 100 % of control | [12] 104 % of control | [13] 100 % of control

CC1C=CC(c2ccccc2)C2C(=O)OC(=O)C12 (stereo unspecified)
inactive: [10] 116 % of control | [11] 114 % of control

CNC(=S)N/N=C/c1ccccn1
inactive: [7] 117 % of control | [8] 116 % of control | [12] 101 % of control | [13] 97 % of control

O=C1CC2C1C1C=CC2n2c(=O)n(-c3ccccc3)c(=O)n21 (stereo unspecified)
inactive: dose: 12.5 mg/kg/injection, schedule: Q04DX002 (ip), vehicle: saline with Tween-80 98 % of control | dose: 25.0 mg/kg/injection, schedule: Q04DX002 (ip), vehicle: saline with Tween-80 99 % of control | dose: 50.0 mg/kg/injection, schedule: Q04DX002 (ip), vehicle: saline with Tween-80 101 % of control

Cc1ccc(S(=O)(=O)NC(=O)N(C)NC(=O)C(=O)NCc2ccco2)cc1
inactive: [4] 103 % of control | [5] 103 % of control | [6] 99 % of control

O=C1C2C3C=CC(C3)C2C(=O)N1CNc1ccc2nc(SC3CCCC3)sc2c1 (stereo unspecified)
inactive: [1] 91 % of control | [2] 88 % of control
